# Experimental data taken from patent publication US20060128715A1, “Oxime derivative hydroxyethylamine aspartyl-protease inhibitors” (priority 2004, published 2006).
# “And” between values parts separate entries of the source, which are not always exact repeats. Equal entries are not always repeated.
# Test system: cathepsin D (catD) versus beta-secretase (BACE)
# Assay: Selectivity for BACE versus catD (ratio of IC50 values)
# Assay type: biochemical
# Details: each value is an average of four experimental runs; multiple values = more than one experiment
# Description: (§1) Selectivity was calculated as a ratio of inhibition (IC50) values in which the inhibition of beta-secretase was compared to the inhibition of other aspartyl proteases.
# In the following examples, each value is an average of four experimental runs and multiple values for one compound indicate that more than one experiment was conducted.
row,SMILES,Selectivity IC50(catD)/IC50(BACE)
1,Cn1cc2c(n1)CCC(NCC(O)C(Cc1cc(F)cc(F)c1)NC(=O)CF)(c1cccc(C(C)(C)C)c1)C2 (stereo not drawn) [Example 50-22],2.0
2,"CC(C)(C)c1cccc(C2(NCC(O)C(Cc3cc(F)cc(F)c3)NC(=O)CF)CCc3n[nH]cc3C2)c1 (single isomer, unassigned) [Example 50-26]",17.8
3,CC(=O)NC(Cc1cc(F)cc(F)c1)C(O)CNC1(c2cccc(C(C)(C)C)c2)CCC(=CC#N)CC1 (stereo not drawn) [Example 50-14],1.9
4,"CC(C)(C)c1cccc(C2(NCC(O)C(Cc3cc(F)cc(F)c3)NC(=O)CF)CCc3n[nH]cc3C2)c1 (single isomer, unassigned) [Example 50-27]",7.8
5,"Cn1cc2c(n1)CCC(NCC(O)C(Cc1cc(F)cc(F)c1)NS(C)(=O)=O)(c1cccc(C(C)(C)C)c1)C2 (single isomer, unassigned) [Example 50-18]",11.0
6,CC(C)(C)c1cccc(C2(NCC(O)C(Cc3cc(F)cc(F)c3)NC(=O)CF)CCc3n[nH]cc3C2)c1 (stereo not drawn) [Example 50-25],8.5
7,CC(=O)NC(Cc1cc(F)cc(F)c1)C(O)CNC1(c2cccc(C(C)(C)C)c2)CCC(=NOCCO)CC1 (stereo not drawn) [Example 50-4],2.3 and 2.5
8,CON=C1CCC(NCC(O)C(Cc2cc(F)cc(F)c2)NC(C)=O)(c2cccc(C(C)(C)C)c2)CC1 (stereo not drawn) [Example 50-2],15.9 and 18.3
9,CCON=C1CCC(NCC(O)C(Cc2cc(F)cc(F)c2)NC(C)=O)(c2cccc(C(C)(C)C)c2)CC1 (stereo not drawn) [Example 50-3],1.8

# Other lines, results leading:
row,Selectivity IC50(catD)/IC50(BACE),SMILES
1,2.8,CC(=O)NC(Cc1cc(F)cc(F)c1)C(O)CNC1(c2cccc(C(C)(C)C)c2)CCc2nn(C)cc2C1 (stereo not drawn) [Example 50-28]
2,1.8,CC(=O)NC(Cc1cc(F)cc(F)c1)C(O)CNC1(c2cccc(-c3ccoc3)c2)CCc2nn(C)cc2C1 (stereo not drawn) [Example 50-19]
3,2.7,"CC(C)(C)c1cccc(C2(NCC(O)C(Cc3cc(F)cc(F)c3)NS(C)(=O)=O)CCc3n[nH]cc3C2)c1 (single isomer, unassigned) [Example 50-16]"
4,16.3,CC(=O)NC(CC(C)C)C(O)CNC1(c2cccc(C(C)(C)C)c2)CCc2n[nH]cc2C1 (stereo not drawn) [Example 50-29]
5,11.1,CC(=O)NC(Cc1cc(F)cc(F)c1)C(O)CNC1(c2cccc(C(C)(C)C)c2)CCc2nn(C(C)=O)cc2C1 (stereo not drawn) [Example 50-12]
6,1.1,CC(=O)NC(Cc1cc(F)cc(F)c1)C(O)CNC1(c2cccc(-c3ccsc3)c2)CCc2nn(C)cc2C1 (stereo not drawn) [Example 50-17]
7,5.9 and 7.0,CC(=O)NC(Cc1cc(F)cc(F)c1)C(O)CNC1(c2cc(CC(C)(C)C)cs2)CCc2n[nH]cc2C1 (stereo not drawn) [Example 50-24]
8,19.1,CC(=O)NC(Cc1ccccc1)C(O)CNC1(c2cccc(C(C)(C)C)c2)CCc2n[nH]cc2C1 (stereo not drawn) [Example 50-20]
9,25.4,"CC(C)(C)c1cccc(C2(NCC(O)C(Cc3cc(F)cc(F)c3)NS(C)(=O)=O)CCc3n[nH]cc3C2)c1 (single isomer, unassigned) [Example 50-15]"
10,4.5,CC(=O)NC(Cc1cc(F)cc(F)c1)C(O)CNC1(c2cccs2)CCc2n[nH]cc2C1 (stereo not drawn) [Example 50-23]

# Test system: cathepsin E (catE) versus beta-secretase (BACE)
# Assay: Selectivity for BACE versus catE (ratio of IC50 values)
# Assay type: biochemical
# Details: multiple values = more than one experiment
# Description: as §1
# Selectivity is reported as the ratio of IC50(catE):IC50(BACE).
row,SMILES,Selectivity IC50(catE)/IC50(BACE)
1,CON=C1CCC(NCC(O)C(Cc2cc(F)cc(F)c2)NC(C)=O)(c2cccc(C(C)(C)C)c2)CC1 (stereo not drawn) [Example 51-2],9.3 and 10.4
2,CCON=C1CCC(NCC(O)C(Cc2cc(F)cc(F)c2)NC(C)=O)(c2cccc(C(C)(C)C)c2)CC1 (stereo not drawn) [Example 51-3],3.3
3,C=C1CCC(NCC(O)C(Cc2cc(F)cc(F)c2)NC(C)=O)(c2cccc(C(C)(C)C)c2)CC1 (stereo not drawn) [Example 51-14],1.9
4,CC(=O)NC(Cc1cc(F)cc(F)c1)C(O)CNC1(c2cccc(C(C)(C)C)c2)CCC(=CC#N)CC1 (stereo not drawn) [Example 51-17],3.9

# Continued, values first:
row,Selectivity IC50(catE)/IC50(BACE),SMILES
1,23.2,"CC(C)(C)c1cccc(C2(NCC(O)C(Cc3cc(F)cc(F)c3)NS(C)(=O)=O)CCc3n[nH]cc3C2)c1 (single isomer, unassigned) [Example 51-18]"
2,5.8,"CC(C)(C)c1cccc(C2(NCC(O)C(Cc3cc(F)cc(F)c3)NS(C)(=O)=O)CCc3n[nH]cc3C2)c1 (single isomer, unassigned) [Example 51-19]"
3,1.8,CC(=O)NC(Cc1cc(F)cc(F)c1)C(O)CNC1(c2cccc(-n3cccn3)c2)CCc2nn(C)cc2C1 (stereo not drawn) [Example 51-22]
4,8.4,CC(=O)NC(Cc1cc(F)cc(F)c1)C(O)CNC1(c2cccc(C(C)(C)C)c2)CCc2nn(C(C)=O)cc2C1 (stereo not drawn) [Example 51-12]
5,1.8,CC(=O)NC(Cc1cc(F)cc(F)c1)C(O)CNC1(c2cccc(C(C)(C)C)c2)CCc2nn(C)cc2C1 (stereo not drawn) [Example 51-23]
6,1.1,CC(=O)NC(Cc1cc(F)cc(F)c1)C(O)CNC1(c2cccc(-c3ccsc3)c2)CCc2nn(C)cc2C1 (stereo not drawn) [Example 51-20]
7,4.8,Cn1cc2c(n1)CCC(NCC(O)C(Cc1cc(F)cc(F)c1)NS(C)(=O)=O)(c1cccc(C(C)(C)C)c1)C2 (stereo not drawn) [Example 51-21]
